According to ChEMBL document CHEMBL5724806, “Unraveling interindividual differences and functional consequences of gut microbial metabolism of immunosuppressants” (2024):

Columns and labels:
Type in all cases: ADME
[1] = (§1) The drug is tested on the gut metagenome community of A-10 with ENA study accession number: PRJEB31790 for biotransformation under anaerobic condition. The drug concentrations were measured over 7 timepoints collected between 0 and 12 hours of incubation by liquid-chromatography-coupled mass spectrometry (LC–MS); parameters: dose 5 uM, timepoint 0, 0.75, 1.5, 3, 6, 9, 12 hours; conditions: 5 µM
[2] = The drug is tested on Gemella haemolysans strain: DSM107751 for biotransformation under anaerobic condition. The drug concentrations were measured over 6 timepoints collected between 0 and 12 hours of incubation by liquid-chromatography-coupled mass spectrometry (LC–MS); parameters: dose 5 uM, timepoint 0, 1.5, 3, 6, 9, 12 hours; conditions: 5 µM
[3] = The drug is tested on Bacteroides vulgatus strain: DSM1447 for biotransformation under anaerobic condition. The drug concentrations were measured over 6 timepoints collected between 0 and 12 hours of incubation by liquid-chromatography-coupled mass spectrometry (LC–MS); parameters: dose 5 uM, timepoint 0, 1.5, 3, 6, 9, 12 hours; conditions: phocaeicola vulgatus, 5 µM
[4] = as §1, with “A-01” for “A-10”, “microaerobic” for “anaerobic”; parameters: dose 5 uM, timepoint 0, 0.75, 1.5, 3, 6, 9, 12 hours; conditions: 5 µM
[5] = as §1, with “P-02” for “A-10”; parameters: dose 5 uM, timepoint 0, 0.75, 1.5, 3, 6, 9, 12 hours; conditions: 5 µM
[6] = as §1, with “A-04” for “A-10”; parameters: dose 5 uM, timepoint 0, 0.75, 1.5, 3, 6, 9, 12 hours; conditions: 5 µM
[7] = The drug is tested on Lactobacillus ruminis strain: ATCC25644 for biotransformation under anaerobic condition. The drug concentrations were measured over 6 timepoints collected between 0 and 12 hours of incubation by liquid-chromatography-coupled mass spectrometry (LC–MS); parameters: dose 5 uM, timepoint 0, 1.5, 3, 6, 9, 12 hours; conditions: ligilactobacillus ruminis, 5 µM
[8] = as §1, with “P-03” for “A-10”; parameters: dose 5 uM, timepoint 0, 0.75, 1.5, 3, 6, 9, 12 hours; conditions: 5 µM
[9] = The drug is tested on Gemella morbillorum strain: DSM20572 for biotransformation under microaerobic condition. The drug concentrations were measured over 6 timepoints collected between 0 and 12 hours of incubation by liquid-chromatography-coupled mass spectrometry (LC–MS); parameters: dose 5 uM, timepoint 0, 1.5, 3, 6, 9, 12 hours; conditions: 5 µM
[10] = The drug is tested on Alloscardovia omnicolens strain: DSM21503 for biotransformation under microaerobic condition. The drug concentrations were measured over 6 timepoints collected between 0 and 12 hours of incubation by liquid-chromatography-coupled mass spectrometry (LC–MS); parameters: dose 5 uM, timepoint 0, 1.5, 3, 6, 9, 12 hours; conditions: 5 µM
[11] = The drug is tested on Lactobacillus gasseri strain: DSM20243 for biotransformation under anaerobic condition. The drug concentrations were measured over 6 timepoints collected between 0 and 12 hours of incubation by liquid-chromatography-coupled mass spectrometry (LC–MS); parameters: dose 5 uM, timepoint 0, 1.5, 3, 6, 9, 12 hours; conditions: 5 µM
[12] = as §1, with “P-04” for “A-10”, “microaerobic” for “anaerobic”; parameters: dose 5 uM, timepoint 0, 0.75, 1.5, 3, 6, 9, 12 hours; conditions: 5 µM
[13] = as §1, with “A-02” for “A-10”, “microaerobic” for “anaerobic”; parameters: dose 5 uM, timepoint 0, 0.75, 1.5, 3, 6, 9, 12 hours; conditions: 5 µM
[14] = The drug is tested on Streptococcus anginosus strain: DSM20563 for biotransformation under microaerobic condition. The drug concentrations were measured over 6 timepoints collected between 0 and 12 hours of incubation by liquid-chromatography-coupled mass spectrometry (LC–MS); parameters: dose 5 uM, timepoint 0, 1.5, 3, 6, 9, 12 hours; conditions: 5 µM
[15] = The drug is tested on Alloscardovia omnicolens strain: DSM21503 for biotransformation under anaerobic condition. The drug concentrations were measured over 6 timepoints collected between 0 and 12 hours of incubation by liquid-chromatography-coupled mass spectrometry (LC–MS); parameters: dose 5 uM, timepoint 0, 1.5, 3, 6, 9, 12 hours; conditions: 5 µM
[16] = The drug is tested on Streptococcus sanguinis strain: DSM20567 for biotransformation under microaerobic condition. The drug concentrations were measured over 6 timepoints collected between 0 and 12 hours of incubation by liquid-chromatography-coupled mass spectrometry (LC–MS); parameters: dose 5 uM, timepoint 0, 1.5, 3, 6, 9, 12 hours; conditions: 5 µM
[17] = as §1, with “P-01” for “A-10”; parameters: dose 5 uM, timepoint 0, 0.75, 1.5, 3, 6, 9, 12 hours; conditions: 5 µM
[18] = The drug is tested on Clostridium scindens strain: DSM5676 for biotransformation under anaerobic condition. The drug concentrations were measured over 6 timepoints collected between 0 and 12 hours of incubation by liquid-chromatography-coupled mass spectrometry (LC–MS); parameters: dose 5 uM, timepoint 0, 1.5, 3, 6, 9, 12 hours; conditions: 5 µM
[19] = as §1, with “T-02” for “A-10”; parameters: dose 5 uM, timepoint 0, 0.75, 1.5, 3, 6, 9, 12 hours; conditions: 5 µM
[20] = The drug is tested on Lactobacillus fermentum strain: DSM20052 for biotransformation under anaerobic condition. The drug concentrations were measured over 6 timepoints collected between 0 and 12 hours of incubation by liquid-chromatography-coupled mass spectrometry (LC–MS); parameters: dose 5 uM, timepoint 0, 1.5, 3, 6, 9, 12 hours; conditions: limosilactobacillus fermentum, 5 µM
[21] = The drug is tested on Lactobacillus reuteri strain: DSM20016 for biotransformation under anaerobic condition. The drug concentrations were measured over 6 timepoints collected between 0 and 12 hours of incubation by liquid-chromatography-coupled mass spectrometry (LC–MS); parameters: dose 5 uM, timepoint 0, 1.5, 3, 6, 9, 12 hours; conditions: limosilactobacillus reuteri, 5 µM
[22] = as §1, with “T-03” for “A-10”, “microaerobic” for “anaerobic”; parameters: dose 5 uM, timepoint 0, 0.75, 1.5, 3, 6, 9, 12 hours; conditions: 5 µM
[23] = as §1, with “A-01” for “A-10”; parameters: dose 5 uM, timepoint 0, 0.75, 1.5, 3, 6, 9, 12 hours; conditions: 5 µM
[24] = as §1, with “A-03” for “A-10”, “microaerobic” for “anaerobic”; parameters: dose 5 uM, timepoint 0, 0.75, 1.5, 3, 6, 9, 12 hours; conditions: 5 µM
[25] = The drug is tested on Lactobacillus reuteri strain: DSM20016 for biotransformation under microaerobic condition. The drug concentrations were measured over 6 timepoints collected between 0 and 12 hours of incubation by liquid-chromatography-coupled mass spectrometry (LC–MS); parameters: dose 5 uM, timepoint 0, 1.5, 3, 6, 9, 12 hours; conditions: limosilactobacillus reuteri, 5 µM
[26] = The drug is tested on Clostridium ramosum strain: DSM1402 for biotransformation under anaerobic condition. The drug concentrations were measured over 6 timepoints collected between 0 and 12 hours of incubation by liquid-chromatography-coupled mass spectrometry (LC–MS); parameters: dose 5 uM, timepoint 0, 1.5, 3, 6, 9, 12 hours; conditions: thomasclavelia ramosa, 5 µM
[27] = The drug is tested on Akkermansia muciniphila strain: DSM22959 for biotransformation under anaerobic condition. The drug concentrations were measured over 6 timepoints collected between 0 and 12 hours of incubation by liquid-chromatography-coupled mass spectrometry (LC–MS); parameters: dose 5 uM, timepoint 0, 1.5, 3, 6, 9, 12 hours; conditions: 5 µM
[28] = The drug is tested on Lactobacillus paracasei strain: ATCC27092 for biotransformation under anaerobic condition. The drug concentrations were measured over 6 timepoints collected between 0 and 12 hours of incubation by liquid-chromatography-coupled mass spectrometry (LC–MS); parameters: dose 5 uM, timepoint 0, 1.5, 3, 6, 9, 12 hours; conditions: lacticaseibacillus paracasei, 5 µM
[29] = The drug is tested on Bacteroides thetaiotaomicron strain: DSM2079 for biotransformation under anaerobic condition. The drug concentrations were measured over 6 timepoints collected between 0 and 12 hours of incubation by liquid-chromatography-coupled mass spectrometry (LC–MS); parameters: dose 5 uM, timepoint 0, 1.5, 3, 6, 9, 12 hours; conditions: 5 µM
[30] = The drug is tested on Escherichia coli strain: DSM27469 for biotransformation under anaerobic condition. The drug concentrations were measured over 6 timepoints collected between 0 and 12 hours of incubation by liquid-chromatography-coupled mass spectrometry (LC–MS); parameters: dose 5 uM, timepoint 0, 1.5, 3, 6, 9, 12 hours; conditions: 5 µM

Bacterial Biotransformation [1]	Bacterial Biotransformation [3]	Bacterial Biotransformation [4]	Bacterial Biotransformation [5]	Bacterial Biotransformation [6]	Bacterial Biotransformation [7]	Bacterial Biotransformation [8]	Bacterial Biotransformation [9]	Bacterial Biotransformation [10]	Bacterial Biotransformation [11]	Bacterial Biotransformation [12]	Bacterial Biotransformation [13]	Bacterial Biotransformation [14]	Bacterial Biotransformation [15]	Bacterial Biotransformation [16]	Bacterial Biotransformation [17]	Bacterial Biotransformation [18]	Bacterial Biotransformation [19]	Bacterial Biotransformation [20]	Structure (SMILES)	Bacterial Biotransformation [2]	other results
Compound NOT metabolized	Compound NOT metabolized	Compound NOT metabolized	Compound NOT metabolized	Compound NOT metabolized	Compound NOT metabolized	Compound NOT metabolized	Compound NOT metabolized	Compound NOT metabolized	Compound NOT metabolized	Compound NOT metabolized	Compound NOT metabolized	Compound NOT metabolized	Compound NOT metabolized	Compound NOT metabolized	Compound NOT metabolized	Compound NOT metabolized	Compound NOT metabolized	Compound NOT metabolized	COc1c(C)c2c(c(O)c1C/C=C(\C)CCC(=O)O)C(=O)OC2 [MYCOPHENOLIC ACID]	Compound NOT metabolized	Bacterial Biotransformation [21]: Compound NOT metabolized; Bacterial Biotransformation [22]: Compound NOT metabolized; Bacterial Biotransformation [23]: Compound NOT metabolized; Bacterial Biotransformation [24]: Compound NOT metabolized; Bacterial Biotransformation [25]: Compound NOT metabolized; Bacterial Biotransformation [26]: Compound NOT metabolized; Bacterial Biotransformation [27]: Compound NOT metabolized; Bacterial Biotransformation [28]: Compound NOT metabolized; Bacterial Biotransformation [29]: Compound NOT metabolized; Bacterial Biotransformation [30]: Compound NOT metabolized
Compound metabolized	Compound NOT metabolized	Compound metabolized	Compound metabolized	Compound metabolized	Compound NOT metabolized	Compound metabolized	Compound NOT metabolized	Compound NOT metabolized	Compound NOT metabolized	Compound metabolized	Compound metabolized	Compound NOT metabolized	Compound NOT metabolized	Compound NOT metabolized	Compound metabolized	Compound metabolized	Compound metabolized	Compound NOT metabolized	C[C@]12C=CC(=O)C=C1CC[C@@H]1[C@@H]2[C@@H](O)C[C@@]2(C)[C@H]1CC[C@]2(O)C(=O)CO [PREDNISOLONE]	Compound NOT metabolized	Bacterial Biotransformation [21]: Compound NOT metabolized; Bacterial Biotransformation [22]: Compound NOT metabolized; Bacterial Biotransformation [23]: Compound metabolized; Bacterial Biotransformation [24]: Compound metabolized; Bacterial Biotransformation [25]: Compound NOT metabolized; Bacterial Biotransformation [26]: Compound NOT metabolized; Bacterial Biotransformation [27]: Compound NOT metabolized; Bacterial Biotransformation [28]: Compound NOT metabolized; Bacterial Biotransformation [29]: Compound NOT metabolized; Bacterial Biotransformation [30]: Compound NOT metabolized
Compound metabolized	Compound NOT metabolized	Compound metabolized	Compound metabolized	Compound metabolized	Compound NOT metabolized	Compound metabolized	Compound NOT metabolized	Compound NOT metabolized	Compound NOT metabolized	Compound metabolized	Compound metabolized	Compound NOT metabolized	Compound NOT metabolized	Compound NOT metabolized	Compound metabolized	Compound metabolized	Compound metabolized	Compound NOT metabolized	C[C@]12C=CC(=O)C=C1CC[C@@H]1[C@@H]2C(=O)C[C@@]2(C)[C@H]1CC[C@]2(O)C(=O)CO [PREDNISONE]	Compound NOT metabolized	Bacterial Biotransformation [21]: Compound NOT metabolized; Bacterial Biotransformation [22]: Compound NOT metabolized; Bacterial Biotransformation [23]: Compound metabolized; Bacterial Biotransformation [24]: Compound metabolized; Bacterial Biotransformation [25]: Compound NOT metabolized; Bacterial Biotransformation [26]: Compound NOT metabolized; Bacterial Biotransformation [27]: Compound metabolized; Bacterial Biotransformation [28]: Compound NOT metabolized; Bacterial Biotransformation [29]: Compound NOT metabolized; Bacterial Biotransformation [30]: Compound NOT metabolized
